#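 1) Cells in 96-well plates. 2) Compound, 48 h, 5 concentrations. 3) Linear interpolation between surrounding doses. 4) Unreached endpoint = highest concentration. The concentration for full growth arrest is given as TGI.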
# What was measured:
# Experiment in all cases: NCI tumour cell line growth inhibition, 48 h
# 786-0 renal = test system: 786-0 renal
# A498 renal = test system: A498 renal
# A549 NSCLC = test system: A549 NSCLC
# CAKI-1 renal = test system: CAKI-1 renal
# CCRF-CEM leukemia = test system: CCRF-CEM leukemia
# COLO 205 colon = test system: COLO 205 colon
# DLD-1 colon = test system: DLD-1 colon
# DMS 114 small cell lung = test system: DMS 114 small cell lung
# DMS 273 small cell lung = test system: DMS 273 small cell lung
# HCC-2998 colon = test system: HCC-2998 colon
# HCT-116 colon = test system: HCT-116 colon
# HCT-15 colon = test system: HCT-15 colon
# HOP-62 NSCLC = test system: HOP-62 NSCLC
# HOP-92 NSCLC = test system: HOP-92 NSCLC
# HT29 colon = test system: HT29 colon
# IGROV1 ovarian = test system: IGROV1 ovarian
# K-562 leukemia = test system: K-562 leukemia
# KM12 colon = test system: KM12 colon
# KM20L2 colon = test system: KM20L2 colon
# LOX IMVI melanoma = test system: LOX IMVI melanoma
# LXFL 529 NSCLC = test system: LXFL 529 NSCLC
# M14 melanoma = test system: M14 melanoma
# MALME-3M melanoma = test system: MALME-3M melanoma
# MOLT-4 leukemia = test system: MOLT-4 leukemia
# NCI-H226 lung = test system: NCI-H226 lung
# NCI-H23 lung = test system: NCI-H23 lung
# NCI-H460 lung = test system: NCI-H460 lung
# NCI-H522 lung = test system: NCI-H522 lung
# OVCAR-3 ovarian = test system: OVCAR-3 ovarian
# OVCAR-4 ovarian = test system: OVCAR-4 ovarian
# OVCAR-5 ovarian = test system: OVCAR-5 ovarian
# OVCAR-8 ovarian = test system: OVCAR-8 ovarian
# RXF 393 renal = test system: RXF 393 renal
# SF-295 CNS = test system: SF-295 CNS
# SF-539 CNS = test system: SF-539 CNS
# SK-MEL-2 melanoma = test system: SK-MEL-2 melanoma
# SK-MEL-28 melanoma = test system: SK-MEL-28 melanoma
# SK-MEL-5 melanoma = test system: SK-MEL-5 melanoma
# SK-OV-3 ovarian = test system: SK-OV-3 ovarian
# SN12C renal = test system: SN12C renal
# SNB-75 CNS = test system: SNB-75 CNS
# SNB-78 CNS = test system: SNB-78 CNS
# SR leukemia = test system: SR leukemia
# SW-620 colon = test system: SW-620 colon
# TK-10 renal = test system: TK-10 renal
# U251 CNS = test system: U251 CNS
# UACC-257 melanoma = test system: UACC-257 melanoma
# UACC-62 melanoma = test system: UACC-62 melanoma
# UO-31 renal = test system: UO-31 renal
# XF 498 CNS = test system: XF 498 CNS
structure (smiles),measurement,setting,value
CNCC(=O)Nc1ccc2c(c1)C(=O)c1ccc(NC(=O)CNC)cc1C2=O,TGI,786-0 renal,15.7 µM
same,TGI,A498 renal,28.5 µM
same,TGI,A549 NSCLC,25.6 µM
same,TGI,CAKI-1 renal,20 µM
same,TGI,CCRF-CEM leukemia,11 µM
same,TGI,COLO 205 colon,11 µM
same,TGI,DLD-1 colon,29.9 µM
same,TGI,DMS 114 small cell lung,7.12 µM
same,TGI,DMS 273 small cell lung,10.7 µM
same,TGI,HCC-2998 colon,14.6 µM
same,TGI,HCT-116 colon,11.9 µM
same,TGI,HCT-15 colon,23.2 µM
same,TGI,HOP-62 NSCLC,9.98 µM
same,TGI,HOP-92 NSCLC,7 µM
same,TGI,HT29 colon,16.2 µM
same,TGI,IGROV1 ovarian,38 µM
same,TGI,K-562 leukemia,7.19 µM
same,TGI,KM12 colon,10.4 µM
same,TGI,KM20L2 colon,21.1 µM
same,TGI,LOX IMVI melanoma,4.17 µM
same,TGI,LXFL 529 NSCLC,12.3 µM
same,TGI,M14 melanoma,11.8 µM
same,TGI,MALME-3M melanoma,12.9 µM
same,TGI,MOLT-4 leukemia,10.1 µM
same,TGI,NCI-H226 lung,20.3 µM
same,TGI,NCI-H23 lung,31.6 µM
same,TGI,NCI-H460 lung,12.3 µM
same,TGI,NCI-H522 lung,4.81 µM
same,TGI,OVCAR-3 ovarian,11.1 µM
same,TGI,OVCAR-4 ovarian,5.68 µM
same,TGI,OVCAR-5 ovarian,34.8 µM
same,TGI,OVCAR-8 ovarian,10.2 µM
same,TGI,RXF 393 renal,20.3 µM
same,TGI,SF-295 CNS,18.6 µM
same,TGI,SF-539 CNS,11.2 µM
same,TGI,SK-MEL-2 melanoma,11.7 µM
same,TGI,SK-MEL-28 melanoma,10.1 µM
same,TGI,SK-MEL-5 melanoma,17.9 µM
same,TGI,SK-OV-3 ovarian,3.81 µM
same,TGI,SN12C renal,11.9 µM
same,TGI,SNB-75 CNS,27.1 µM
same,TGI,SNB-78 CNS,10.7 µM
same,TGI,SR leukemia,7.54 µM
same,TGI,SW-620 colon,12.3 µM
same,TGI,TK-10 renal,44.9 µM
same,TGI,U251 CNS,10.4 µM
same,TGI,UACC-257 melanoma,16.1 µM
same,TGI,UACC-62 melanoma,22.2 µM
same,TGI,UO-31 renal,25.7 µM
same,TGI,XF 498 CNS,8.25 µM

# Source: PubChem BioAssay (NCI)
